Assay results reported in patent US4347178A, “Compounds and methods of making” (Burroughs Wellcome Co., priority 1980, dated 1982).

Assays:
[1] = tested on: anti-compound 2 sera and anti-compound 3 sera; assay: RIA of bupropion using 125I-labeled bupropion competitors with anti-compound 2 sera and anti-compound 3 sera; type: biochemical; details: for RIA sensitivity compared with the compound 10 system: substitution of 7 or 8 as competitor, anti-compound 2 and anti-compound 3 sera
Experimental: (§1) Samples of six standard solutions of bupropion in blank plasma having concentrations of 0.39 to 50 ng/ml) are pipetted (0.1 ml each) in duplicate into 12×75 mm plastic tubes. Duplicate non-specific binding (no antibody) and maximum binding tubes (no unlabeled bupropion) receive 0.1 ml blank plasma. Spiked plasma controls at several concentrations of (e.g., 1.0, 10.0, and 100 ng/ml) and plasma samples for assay (diluted into the standard range with blank plasma if necessary) are assayed in duplicate. After being placed in an ice bath, all tubes receive (in order) 0.2 ml ^3 H bupropion (416 pg. containing approximately 10^4 cpm) and 0.7 ml anti-bupropion serum (raised to a ring-functionalized immunogen according to the present invention) (at pre-determined dilutions such that approximately 40% of the ^3 H bupropion added is bound), both in assay buffer (0.05 M phosphate-bufferedisotonic saline, containing 0.01 M EDTA and 0.1% gelatin, pH 7.0). Non-specific binding tubes receive 0.7 ml assay buffer.) Following incubation either at 25° C. for 2 hours or overnight at 4° C., bound and free ^3 H bupropion are separated by incubation for 10 min at 0° C. with 0.5 ml ice-cold dextran-coated charcoal solution (0.25% dextran, 5 mg/ml charcoal, in assay buffer) followed by centrifugation for 10 minutes at 4° C. […] The supernatants, containing antibody-bound ^3 H bupropion are carefully decanted into liquid scintillation cocktail for quantitation of ^3 H. After counts (minus average non-specific binding cpm) are expressed as percentages of average maximum binding cpm, bupropion concentrations in plasma samples and spiked controls are read from a standard curve (log concentration vs percent average maximum binding).
RIA's have been run according to the method of Example X utilizing ^125 I labeled bupropion competitors of the present invention in conjunction with antisera obtained following immunization with immunogens of the present invention. […] Following the ethanol precipation of antibody-bound ^125 I-bupropion competitior at equilibrium, ^125 I in the protein pellets was quantified.

[2] = tested on: anti-compound 1 sera; assay: RIA of bupropion using compound 6 with anti-compound 1 sera; type: biochemical
Experimental: as §1, with “7.0).” for “7.0). Non-specific binding tubes receive 0.7 ml assay buffer.) Following incubation either at 25° C. for 2 hours or overnight at 4° C., bound and free ^3 H bupropion are separated by incubation for 10 min at 0° C. with 0.5 ml ice-cold dextran-coated charcoal solution (0.25% dextran, 5 mg/ml charcoal, in assay buffer) followed by centrifugation for 10 minutes at 4° C.”, “binding). […]” for “binding).”

CC(NC(C)(C)C)C(=O)c1ccc(CCCOC(=O)CCC(=O)NCCc2ccc(O)c([125I])c2)c(Cl)c1 (stereo not drawn) [compound 8, α-t-Butylamino-3-chloro-4-γ-hydroxypyropylpropiophenone-hemisuccinate-^125 I-tyramine amide]
RIA sensitivity compared with the compound 10 system [1]: approximately equal to that obtained with the compound 10 system

CC(NC(C)(C)C)C(=NOCC(=O)NCCc1ccc(O)c([125I])c1)c1cccc(Cl)c1 (stereo not drawn) [compound 6, α-t-Butylamino-3-chloropropiophenone-carboxymethyloxime-^125 I-tyramine amide]
RIA sensitivity [2]: least sensitive RIA

CC(NC(C)(C)C)C(=O)c1ccc(OCC(=O)NCCc2ccc(O)c([125I])c2)c(Cl)c1 (stereo not drawn) [compound 7, α-t-Butylamino-3-chloro-4-carbomethoxypropiophenone-^125 I-tyramine amide]
RIA sensitivity compared with the compound 10 system [1]: approximately equal to that obtained with the compound 10 system

CC(NC(C)(C)C)C(=O)c1ccc(O)c([125I])c1 (stereo not drawn) [compound 9, ^125 I-α-t-Butylamino-3-iodo-4-hydroxypropiophenone]
RIA sensitivity relative to the compound 10 (3H bupropion) assay system ([1]; in conjunction with either antisera (anti-compound 2 or anti-compound 3)): approximately ten
